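Compound exposure: 48 hours, 5 concentrations, 96-well plates. At the TGI there is no net growth.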
Tests used:
Assay in all cases: DTP human tumour cell line panel, 48 h
[1] = test system: SF-539 CNS
[2] = test system: SK-OV-3 ovarian
[3] = test system: UO-31 renal
[4] = test system: HOP-92 NSCLC
[5] = test system: DLD-1 colon
[6] = test system: TK-10 renal
[7] = test system: A549 NSCLC
[8] = test system: CCRF-CEM leukemia
[9] = test system: MOLT-4 leukemia
[10] = test system: SK-MEL-28 melanoma
[11] = test system: UACC-62 melanoma
[12] = test system: RXF-631 renal
[13] = test system: OVCAR-5 ovarian
[14] = test system: ACHN renal
[15] = test system: RPMI-8226 leukemia
[16] = test system: SF-268 CNS
[17] = test system: 786-0 renal
[18] = test system: UACC-257 melanoma
[19] = test system: RXF 393 renal
[20] = test system: SF-295 CNS
[21] = test system: KM12 colon
[22] = test system: U251 CNS
[23] = test system: DMS 114 small cell lung
[24] = test system: HT29 colon
[25] = test system: OVCAR-8 ovarian
[26] = test system: LOX IMVI melanoma
[27] = test system: OVCAR-3 ovarian
[28] = test system: MALME-3M melanoma
[29] = test system: SW-620 colon
[30] = test system: EKVX NSCLC
[31] = test system: SR leukemia
[32] = test system: M14 melanoma
[33] = test system: HOP-62 NSCLC
[34] = test system: SK-MEL-5 melanoma
[35] = test system: SK-MEL-2 melanoma
[36] = test system: NCI-H460 lung
[37] = test system: LXFL 529 NSCLC
[38] = test system: HCC-2998 colon
[39] = test system: XF 498 CNS
[40] = test system: DMS 273 small cell lung
[41] = test system: M19-MEL melanoma
[42] = test system: NCI-H522 lung
[43] = test system: HOP-18 NSCLC
[44] = test system: NCI-H226 lung
[45] = test system: KM20L2 colon
[46] = test system: SNB-78 CNS
[47] = test system: HCT-15 colon
[48] = test system: IGROV1 ovarian
[49] = test system: NCI-H23 lung
[50] = test system: A498 renal
[51] = test system: HCT-116 colon
[52] = test system: SNB-75 CNS
[53] = test system: COLO 205 colon
[54] = test system: SNB-19 CNS
[55] = test system: K-562 leukemia
[56] = test system: HL-60(TB) leukemia
[57] = test system: SN12C renal

ClCc1ccc(C2OCCO2)cc1
TGI [1]: > 56.7 µM | TGI [2]: > 82 µM | TGI [3]: > 56.2 µM | TGI [4]: 38.2 µM | TGI [5]: 34.3 µM | TGI [6]: > 75.3 µM | TGI [7]: > 80.7 µM | TGI [8]: > 69.7 µM | TGI [9]: 45.6 µM | TGI [10]: > 58.6 µM | TGI [11]: > 52 µM | TGI [12]: > 100 µM | TGI [13]: > 63.9 µM | TGI [14]: > 62 µM | TGI [15]: 74.6 µM | TGI [16]: > 100 µM | TGI [17]: 54.4 µM | TGI [18]: 31.6 µM | TGI [19]: > 62 µM | TGI [20]: 35.5 µM | TGI [21]: 18.4 µM | TGI [22]: 17.2 µM | TGI [23]: > 42.9 µM | TGI [24]: 32.6 µM | TGI [25]: 36.1 µM | TGI [26]: 24.5 µM | TGI [27]: 49.2 µM | TGI [28]: 49.9 µM | TGI [29]: 34.4 µM | TGI [30]: > 63 µM | TGI [31]: > 79.7 µM | TGI [32]: 34.3 µM | TGI [33]: 41.2 µM | TGI [34]: > 55.5 µM | TGI [35]: 42.2 µM | TGI [36]: 39.4 µM | TGI [37]: 37.2 µM | TGI [38]: 32 µM | TGI [39]: 33.3 µM | TGI [40]: 45.3 µM | TGI [41]: 37.8 µM | TGI [42]: 28.6 µM | TGI [43]: > 92.2 µM | TGI [44]: 40.1 µM | TGI [45]: > 69 µM | TGI [46]: > 31.6 µM | TGI [47]: 34.7 µM | TGI [48]: > 100 µM | TGI [49]: 17.2 µM | TGI [50]: 45.3 µM | TGI [51]: > 52.1 µM | TGI [52]: 52.5 µM | TGI [53]: 37.8 µM | TGI [54]: > 59 µM | TGI [55]: > 31.6 µM | TGI [56]: 12.5 µM | TGI [57]: 35.3 µM

Source: PubChem BioAssay (NCI)
